From US20230287068A1, “KERATIN BD-6, PREPARATION METHOD THEREFOR AND PHARMACEUTICAL COMPOSITION AND USE THEREOF” (INSTITUTE OF MATERIAL MEDICA, CHINESE ACADEMY OF MEDICAL …, priority 2019, published 2023)
Where a name gives a salt, the structure may show the parent alone. Marks after values point to notes of the source that are not given here.

Assays:
[1] = system: acetic acid writhing of ICR mice; assay: Acetic acid writhing test in ICR mice; type: in vivo
Experimental: • Animals: male ICR mice; • Drugs and reagents: aspirin, physiological saline, glacial acetic acid, protein BD-6. • Experiment grouping: • Model group; • Aspirin 300 mg/kg group; • Protein BD-6, 50 mg/kg group, 200 mg/kg group.
One day after the experimental animals adapt to the environment, Aspirin 300 mg/kg, protein BD-6 50 mg/kg, 200 mg/kg were given orally one hour in advance, and the administration volume was 10 ml/kg; Then, 0.6% acetic acid solution was injected intraperitoneally, and the incubation period (seconds) and frequency of writhing in the animal was observed within 15 minutes.
Calculate the mean and standard error of the data in each group. Compared with the model group by TTEST, P<0.05 was considered as statistically different.

[2] = system: yeast-induced fever model in rats; assay: Yeast-induced fever model in SD rats; type: in vivo
Experimental: (§1) • Medicines: yeast (OXOID LP0021), aspirin (SIGMA A2093), protein BD-6; • Instruments: electronic balance (SARTORIUS BP121S type), electronic clinical thermometer (CITIZEN CT-513W type). • Experiment grouping: • Normal control group; • Model group: yeast fever model; • Positive control group: Aspirin 300 mg/kg group; • Protein BD-6, 10 mg/kg group, 50 mg/kg group.
(§2) Preparation of experimental animals: After the experimental animals adapt to the experimental environment (temperature 22° C.±2° C., relative humidity 50%±2%) for 1 day. Pre-adaptation to measure rectal temperature at 8:00 and 15:00, rats were fasted and water was taken freely 12 h before experiment, and let the animal to empty its feces before measuring the rectal temperature. Apply petroleum jelly to the electronic thermometer probe before each temperature measurement. Insert the rat rectum 2 cm (can be marked at 2 cm to ensure that the depth of each insertion is consistent), and record the body temperature after the reading is stable.
(§3) Subcutaneous injection of dry yeast to replicate rat fever model: The body temperature of the rats was measured before modeling. Qualified rats with a body temperature of 36.2-37.3° C. were selected and randomly divided into groups with 8 rats in each group. After oral administration of aspirin and different doses of protein BD-6, 20% yeast suspension (10 ml/kg) was injected subcutaneously immediately, and the normal control group was injected intraperitoneally with an equal volume of normal saline. The body temperatures of the rats were monitored after 2 hours for a total of 8 hours.
(§4) According to the body temperature measured at each time point on the day of the experiment, calculate the mean, standard deviation and standard error of the body temperature of each group of rats. The data of each group was compared with TTEST, and P<0.05 was considered as a significant difference.

[3] = system: lipopolysaccharide (LPS) induced fever model in rats; assay: Lipopolysaccharide (LPS) induced fever model in SD rats; type: in vivo
Experimental: as §1, with “Animals: 230-260 grams of male SD rats; • Drugs: lipopolysaccharide (LPS, SIGMAL-2880),” for “Medicines: yeast (OXOID LP0021),”, “(SIGMAA2093),” for “(SIGMA A2093),”, “lipopolysaccharide” for “yeast”
Method: the method of intraperitoneal injection of Lipopolysaccharide to replicate rat fever model.
as §2
as §3, with “Intraperitoneal” for “Subcutaneous”, “lipopolysaccharide” for “dry yeast”, “lipopolysaccharide (20 µg/kg, 2” for “20% yeast suspension (10”, “intraperitoneally” for “subcutaneously”
as §4

[4] = system: mice cough induced by ammonia water; assay: Antitussive test, cough induced by ammonia water in mice; type: in vivo, ICR mice
Experimental: • Animals: male ICR mice; • Drugs and reagents: dextromethorphan hydrobromide, ammonia water, 0.2% CMC-Na, protein BD-6; • Apparatus: Compressed nebulizer (403T type), balance (XS105DU type). • Experiment grouping: • Solvent control group; • Dextromethorphan 15 mg/kg group; • Protein BD-6, 20 mg/kg group, 50 mg/kg group.
Dextromethorphan and different doses of protein BD-6 (administration volume 10 ml/kg) were given orally in groups, and the solvent control group was given the same volume of distilled water. One hour later, mice were put into a sealed box and atomized 10% ammonia water for 10 seconds, and then observed and recorded the incubation period of cough in mice and the number of coughs in 2 minutes.
Record the time point of oral administration, the time point of atomization experiment, the incubation period of mice cough and the number of coughs within 2 minutes, respectively. The incubation period of cough refers to the number of seconds from the start of the atomization of ammonia to the occurrence of cough. The performance of coughing in mice is based on contraction of their abdominal muscles (breast contraction) and opening their mouths at the same time. Calculate the mean and standard error of each group of data, and use TTEST to compare the model group with other groups, and P<0.05 is considered as a significant difference.

[5] = system: PLO-induced epilepsy in mice; assay: Pilocarpine (PLO) induced convulsive epilepsy in mice; type: in vivo, ICR mice; parameters: mortality rate: unit not given here; conditions: Diazepam 2 mg/kg, PLO 225 mg/kg i.p.
Experimental: • Animals: male ICR mice; • Drugs: Pilocarpine HCl (PLO, pilocarpine, pilocarpine hydrochloride), Diazepam (diazepam tablets), protein BD-6. • Experiment grouping: • Model group: • Diazepam 2 mg/kg group; • Protein BD-6, 50 mg/kg group, 200 mg/kg group.
The drug was administered once in the afternoon the day before modeling, PLO-225 mg/kg (modeling agent) was injected intraperitoneally 1 hour after the test drug was administered intragastrically on the day of modeling. And positive drug can be administered once 20 minutes before modeling. Observe for 30 minutes after PLO injection.
Observation indicators: ①Seizure situation: the time of seizures from Grade II to Grade IV; ②the time to death.
(§5) Seizure grade: Refer to Racine grading standard: Grade 0: No response; Grade I: manifested as twitching of facial muscles or the corners of the mouth; Grade II: can nod; Grade III: twitching of one limb; Grade IV: rigidity or body twitching; Grade V: generalized epilepsy (generalized tonic seizures).
Count the number of Grade IV seizures and deaths in each group of mice in the experiment; Grade II, III and IV incubation period. […] Chi-square test was used for statistics of the number of cases. The mean value and standard error of the incubation period were calculated, and TTEST was used to compare the model group with other groups. P<0.05 was considered as a significant difference.

[6] = system: PTZ-induced epilepsy in mice; assay: Pentylenetetrazole (PTZ) induced epilepsy in mice; type: in vivo, ICR mice; conditions: Retigabine 60 mg/kg, PTZ 65 mg/kg i.p.
Experimental: • Animals: male ICR mice; • Medicines: Pentylenetetrazol (PTZ), Retigabine, Protein BD-6. • Experiment grouping: • Model group; • Retigabine 60 mg/kg group; • Protein BD-6, 50 mg/kg group, 200 mg/kg group;
The drug was administered once in the afternoon the day before modeling, On the day of modeling, PTZ-65 mg/kg (modeling agent) was injected intraperitoneal 1 hour after the test drug was administered intragastrically, and the positive drug can be administered once half an hour before modeling. Continue to observe for 15 minutes after injection of PTZ.
Observation index: ①Seizure situation: the time of seizures from Grade III to Grade VI; ②Death situation
as §5
Count the cases of seizures and deaths in each group of mice in the experiment; Grade III and IV incubation period. The incubation period of mice that have not attacked to Grade IV is recorded as the maximum of 900 seconds. Chi-square test was used for statistics of the number of cases. Calculate the mean and standard error of the incubation period. Use TTEST to compare the model group with other groups, and P<0.05 is considered as a significant difference.

[7] = aspirin 300 mg/kg oral, 0.6% acetic acid i.p., within 15 minutes
[8] = aspirin 300 mg/kg oral, 20% yeast s.c., SD rats
[9] = aspirin 300 mg/kg oral, LPS 20 µg/kg i.p., SD rats

## CC(=O)Oc1ccccc1C(=O)O [aspirin, reference compound]
[1]; Aspirin 300 mg/kg, P<0.05
  Writhing incubation period and times of writhing vs model group (in words): can significantly delay the incubation period of writhing and reduce the times of writhing
[1]; [7]
  Frequency of writhing: 14.8±3.3^∗∗ times
  Writhing incubation period: 281.6±26.0^∗∗ seconds
[2]; [8]
  Body temperature 2 hours after modeling: 37.1±0.1 °C
  Body temperature 4 hours after modeling: 37.0±0.1 °C
  Body temperature 6 hours after modeling: 37.1±0.1 °C
  Body temperature 8 hours after modeling: 37.1±0.1 °C
[2]; aspirin 300 mg/kg, 4, 6 and 8 hours after modeling, P<0.05 vs model group
  Effect on increase in body temperature (in words): can effectively inhibit the increase in body temperature of model rats
[3]; [9]
  Body temperature 2 hours after modeling: 36.7±0.1 °C
  Body temperature 4 hours after modeling: 36.7±0.1 °C
  Body temperature 6 hours after modeling: 36.6±0.1 °C
  Body temperature 8 hours after modeling: 36.6±0.1 °C
[3]; aspirin 300 mg/kg, 2, 4, 6 and 8 hours after modeling, P<0.05 vs model group
  Effect on increase in body temperature (in words): can effectively inhibit the increase in body temperature of model rats

## COc1ccc2c(c1)[C@]13CCCC[C@@H]1[C@H](C2)N(C)CC3 [Dextromethorphan, dextromethorphan hydrobromide, reference compound]
[4]; Dextromethorphan 15 mg/kg oral, 10% ammonia water 10 seconds, X±SEM
  Incubation period (cough): 37.3 ± 2.4 s
[4]; Dextromethorphan 15 mg/kg oral, within 2 minutes, X±SEM
  Number of coughs: 30.2±2.0^∗∗
[4]; dextromethorphan 15 mg/kg, P<0.05
  Incubation period and number of coughs vs solvent control (in words): significant improvement in the incubation period and the number of coughs

## CN1C(=O)CN=C(c2ccccc2)c2cc(Cl)ccc21 [Diazepam, reference compound]
[5]; 10 mice
  Cases of deaths: 0
  Grade IV seizure rate: 0** %
  mortality rate: 0
[5]; 10 mice, 30 min observation
  Cases of Grade IV: 0**
[5]; mean±SEM
  Grade II seizure incubation period: 151±6^∗∗ s
  Grade III seizure incubation period: 275±20^∗∗ s
[5]; mean±SEM, maximum 1800 seconds
  Grade IV seizure incubation period: 1800±0^∗∗ s

## CCOC(=O)Nc1ccc(NCc2ccc(F)cc2)cc1N [Retigabine, reference compound]
[6]; 10 mice
  Cases of deaths: 0
  Grade IV seizure rate: 40%*
  mortality rate: 0%
[6]; 10 mice, 15 min observation
  Cases of Grade IV: 4*
[6]; mean±SEM
  Grade III seizure incubation period: 104±13^∗∗ s
[6]; mean±SEM, maximum 900 seconds
  Grade IV seizure incubation period: 634±109^∗∗ s
